In patent US6706663B2, “Herbicidal 3-heterocyclic substituted benzisothiazole and benzisoxazole compounds” (Wyeth, priority 2000, dated 2004):

Assays:
[1] = system: ZEAMX (Corn, Field); assay: Preemergence herbicidal evaluation; type: in vivo, Zea mays, L.; details: preemergence, rated 4-5 weeks after treatment
[2] = system: GALAP (Galium aparine); assay: Postemergence herbicidal evaluation; type: in vivo; details: postemergence
How it was run: (§1)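 Visual 0–9 injury scores versus control plants, covering stand, vigour, malformation, size, chlorosis and general appearance, taken four to five weeks post-spray and averaged over replicate tests. Plants were sprayed at roughly two weeks old and held on greenhouse benches.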

[3] = system: ABUTH (Abutilon theophrasti); assay: Postemergence herbicidal evaluation; type: in vivo, Medic.; details: postemergence
How it was run: as §1

[4] = system: IPOHE (Ipomoea hederacea); assay: Postemergence herbicidal evaluation; type: in vivo, (L.) Jacq.; details: postemergence
How it was run: as §1

[5] = system: ABUTH (Abutilon theophrasti); assay: Preemergence herbicidal evaluation; type: in vivo, Medic.; details: preemergence, rated 4-5 weeks after treatment
[6] = system: GLXMAW (Soybean, Williams); assay: Postemergence herbicidal evaluation; type: in vivo, Glycine max, (L.) Merr. cv Williams; details: postemergence
How it was run: as §1

[7] = system: MOOVA (Monochoria vaginalis); assay: Flooded paddy, preemergence weed control; type: in vivo, Presl.; details: rated 3-4 weeks after treatment, 0-9 rating scale
How it was run: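 Scoring used a 0-9 visual scale relative to control. Before that, seeds or propagules were planted shallowly in silt loam and flooded to 1.5–3 cm, a depth maintained throughout, with greenhouse care during the test.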

[8] = system: GALAP (Galium aparine); assay: Preemergence herbicidal evaluation; type: in vivo; details: preemergence, rated 4-5 weeks after treatment
How it was run: (§2)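 Visual 0-9 rating versus untreated control, taken four to five weeks post-treatment, scoring stand, vigor, malformation, size, chlorosis and overall appearance. Compound applied as aqueous acetone spray to freshly seeded soil cups, then kept under standard greenhouse care.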

[9] = system: AMBEL (Ambrosia artemisifolia); assay: Preemergence herbicidal evaluation; type: in vivo, L.; details: preemergence, rated 4-5 weeks after treatment
How it was run: as §2

[10] = system: CASOB (Cassia obtusifolia); assay: Preemergence herbicidal evaluation; type: in vivo, L.; details: preemergence, rated 4-5 weeks after treatment
How it was run: as §2

[11] = system: CHEAL (Chenopodium album); assay: Preemergence herbicidal evaluation; type: in vivo, L.; details: preemergence, rated 4-5 weeks after treatment
How it was run: as §2

[12] = system: TRZAWR (Wheat, Winter, cv Riband); assay: Postemergence herbicidal evaluation; type: in vivo, Triticum aestivum; details: postemergence
How it was run: as §1

[13] = system: SETVI (Setaria viridis); assay: Preemergence herbicidal evaluation; type: in vivo, (L.) Beau; details: preemergence, rated 4-5 weeks after treatment
How it was run: as §2

[14] = system: ECHCG (Echinochloa crus-galli); assay: Preemergence herbicidal evaluation; type: in vivo, (L.) Beau; details: preemergence, rated 4-5 weeks after treatment
How it was run: as §2

[15] = system: SETVI (Setaria viridis); assay: Postemergence herbicidal evaluation; type: in vivo, (L.) Beau; details: postemergence
How it was run: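 First, seedlings are raised in flats for about two weeks. Next, compound dispersed in 50/50 acetone/water with 0.5% TWEEN 20 is sprayed at 40 psi to deliver about 0.0040–1.000 kg/ha. Plants are then maintained in the greenhouse and rated 0-9 after four to five weeks.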

[16] = system: ORYSAT (Rice, Tebonnet); assay: Flooded paddy, post-transplant rice tolerance; type: in vivo, Oryza sativa, (L.) Tebonnet; details: flooded paddy, post-transplant rice, rated 3-4 weeks after treatment, 0-9 rating scale
How it was run: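 Seedlings aged ten days are transplanted in pairs into undrained pots of silt loam, which are then flooded to a depth of 1.5 to 3 cm. After herbicide application the pots are kept in a greenhouse with the flood maintained. Plants are rated 0-9 by visual comparison with controls.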

CSCC1COC(c2nsc3ccc(-n4c(=O)cc(C(F)(F)F)n(C)c4=O)cc23)O1 (centres unmarked) [Compound 84, 1-methyl-3-[3-[4-[(methylthio)methyl]-1,3-dioxolan-2-yl]-1,2-benzisothiazol-5-yl]-6-(trifluoromethyl)uracil]
Preemergence herbicidal rating ZEAMX ([1]; rate 0.0620 kg/ha): 3.7 | Preemergence herbicidal rating ZEAMX ([1]; rate 0.1250 kg/ha): 6.3 | Preemergence herbicidal rating ZEAMX ([1]; rate 0.2500 kg/ha): 8.0 | GALAP herbicidal rating ([2]; rate 0.0320 kg/ha): 6.5 | GALAP herbicidal rating ([2]; rate 0.0620 kg/ha): 7.5 | GALAP herbicidal rating ([2]; rate 0.1250 kg/ha): 9.0 | ABUTH herbicidal rating ([3]; rate 0.0320 kg/ha): 9.0 | ABUTH herbicidal rating ([3]; rate 0.0620 kg/ha): 9.0 | ABUTH herbicidal rating ([3]; rate 0.1250 kg/ha): 9.0 | IPOHE herbicidal rating ([4]; rate 0.0320 kg/ha): 9.0 | IPOHE herbicidal rating ([4]; rate 0.0620 kg/ha): 9.0 | IPOHE herbicidal rating ([4]; rate 0.1250 kg/ha): 9.0 | Preemergence herbicidal rating ABUTH ([5]; rate 0.0620 kg/ha): 9.0 | Preemergence herbicidal rating ABUTH ([5]; rate 0.1250 kg/ha): 9.0 | Preemergence herbicidal rating ABUTH ([5]; rate 0.2500 kg/ha): 9.0 | GLXMAW herbicidal rating ([6]; rate 0.0320 kg/ha): 8.5 | GLXMAW herbicidal rating ([6]; rate 0.0620 kg/ha): 9.0 | GLXMAW herbicidal rating ([6]; rate 0.1250 kg/ha): 9.0 | herbicidal rating, MOOVA ([7]; rate 0.0080 kg/ha): 9.0 | herbicidal rating, MOOVA ([7]; rate 0.0320 kg/ha): 9.0 | herbicidal rating, MOOVA ([7]; rate 0.1250 kg/ha): 9.0 | Preemergence herbicidal rating GALAP ([8]; rate 0.0620 kg/ha): 7.0 | Preemergence herbicidal rating GALAP ([8]; rate 0.1250 kg/ha): 8.0 | Preemergence herbicidal rating GALAP ([8]; rate 0.2500 kg/ha): 9.0 | Preemergence herbicidal rating AMBEL ([9]; rate 0.0620 kg/ha): 9.0 | Preemergence herbicidal rating AMBEL ([9]; rate 0.1250 kg/ha): 9.0 | Preemergence herbicidal rating AMBEL ([9]; rate 0.2500 kg/ha): 9.0 | Preemergence herbicidal rating CASOB ([10]; rate 0.0620 kg/ha): 4.0 | Preemergence herbicidal rating CASOB ([10]; rate 0.1250 kg/ha): 8.0 | Preemergence herbicidal rating CASOB ([10]; rate 0.2500 kg/ha): 9.0 | Preemergence herbicidal rating CHEAL ([11]; rate 0.0620 kg/ha): 9.0 | Preemergence herbicidal rating CHEAL ([11]; rate 0.1250 kg/ha): 9.0 | Preemergence herbicidal rating CHEAL ([11]; rate 0.2500 kg/ha): 9.0 | TRZAWR herbicidal rating ([12]; rate 0.0320 kg/ha): 4.8 | TRZAWR herbicidal rating ([12]; rate 0.0620 kg/ha): 6.3 | TRZAWR herbicidal rating ([12]; rate 0.1250 kg/ha): 9.0 | Preemergence herbicidal rating SETVI ([13]; rate 0.0620 kg/ha): 3.5 | Preemergence herbicidal rating SETVI ([13]; rate 0.1250 kg/ha): 7.5 | Preemergence herbicidal rating SETVI ([13]; rate 0.2500 kg/ha): 9.0 | Preemergence herbicidal rating ECHCG ([14]; rate 0.0620 kg/ha): 4.0 | Preemergence herbicidal rating ECHCG ([14]; rate 0.1250 kg/ha): 6.7 | Preemergence herbicidal rating ECHCG ([14]; rate 0.2500 kg/ha): 9.0 | SETVI herbicidal rating ([15]; rate 0.0320 kg/ha): 6.0 | SETVI herbicidal rating ([15]; rate 0.0620 kg/ha): 9.0 | herbicidal rating, ORYSAT (rice tolerance) ([16]; rate 0.0080 kg/ha): 0.0 | herbicidal rating, ORYSAT (rice tolerance) ([16]; rate 0.0320 kg/ha): 1.5 | herbicidal rating, ORYSAT (rice tolerance) ([16]; rate 0.1250 kg/ha): 5.5
